{"source": "patent US6864056B1", "about": "(priority 2000, dated 2005)", "system": "dAU6 NH3 oligonucleotide substrate", "format": "biochemical"}
{"substance": "gelonin", "values": [{"measurement": "level of activity (fluorescence normalized with negative control, FIG. 3)", "value": "highest level of activity"}]}
